Experimental findings from patent US20240382455A1, “COMPOSITION CONTAINING 1H-PYRAZOLE-3-AMIDE-BASED COMPOUND DERIVATIVE FOR PREVENTION OR TREATMENT OF FIBROSIS” (TSD LIFE SCIENCES CO., LTD., priority 2017, published 2024) are described below.

Holding throughout (format): in vivo, C57BL/6 mice
The test system of assay [1] is αSMA, TGF-β1, COL6A3, and LOX mRNAs. The assay can be described thus: Quantitative real-time PCR on liver tissue of fibrosis model mice. The following applies: liver tissue (FIG. 5); 10 mg/kg intraperitoneal for 4 weeks; almost similar to rimonabant 10 mg/kg positive control. As for the experimental part: (§1) First, after stabilizing 5-week old male C57BL/6 mice for one week, a fibrosis model was constructed by feeding the mice with a high fat diet and a high-carbohydrate diet for 12 weeks, thereby inducing fibrosis of the mice. After that, the mice were divided into total four groups, and a vehicle (negative control group), 10mg/kg of rimonabant (positive control group), 10 mg/kg of a compound 1, and 10mg/kg of a compound 2 were administered to each of the groups by intraperitoneal injection for 4 weeks. In order to perform an experimental process, the mice were sacrificed, and epididymal adipose and liver tissues were extracted from the sacrificed mice.
(§2) After separating RNA from the extracted epididymal adipose and liver tissues by using a Trizol reagent (Gibco), cDNA templates were produced by using reverse transcriptase. After injecting such produced cDNA templates into SYBR green dyes by using gene-specific nucleotide primers, PCR products were analyzed to obtain analyzed mRNAs by amplifying the cDNA templates injected into SYBR green dyes with a real-time multiplexing amplification system (CFX connect™, Bio-Rad). At this time, the analyzed mRNAs were αSMA, TGF-β1, COL6A3, and LOX mRNAs, and used primer sequences are as described in the following [Table 1].

Assay [2] deals with collagen permeated into epididymal adipose tissue of fibrosis model mice. Description: Picrosirius staining of epididymal adipose tissue of fibrosis model mice. Particulars: adipose tissue (FIG. 2); high fat and high-carbohydrate diet mice; 10 mg/kg intraperitoneal for 4 weeks; compared to vehicle treatment group. The protocol:
as §1
(§3) After fixing and embedding the extracted epididymal adipose and liver tissues, paraffin sections were manufactured by slicing the embedded epididymal adipose and liver tissues. After that, fibrosis degrees were analyzed by staining collagen permeated into each of the tissues by using a picrosirius red stain kit.

Assay [3] deals with αSMA, TGF-β1, COL6A3, and LOX mRNAs. Description: Quantitative real-time PCR on epididymal adipose tissue of fibrosis model mice. Particulars: adipose tissue (FIG. 3); 10 mg/kg intraperitoneal for 4 weeks; almost similar to rimonabant 10 mg/kg positive control. As for the experimental part:
as §1, §2
(In general: Real-time PCR tracks product formation cycle by cycle.)

For assay [4], the system named is collagen permeated into liver tissue of fibrosis model mice. The assay can be described thus: Picrosirius staining of liver tissue of fibrosis model mice. Particulars: liver tissue (FIG. 4); high fat and high-carbohydrate diet mice; 10 mg/kg intraperitoneal for 4 weeks; compared to vehicle treatment group. The protocol:
as §1, §3

As for `Cc1c(/C=C/C(=O)NCc2cccc(Cl)c2)nn(-c2ccc(Cl)cc2Cl)c1-c1ccc(Cl)cc1` [compound 1, (E)-N-(3-chlorobenzyl)-3-(5-(4-chlorophenyl)-1-(2,4-dichlorophenyl)-4-methyl-1H-pyrazole-3-yl)acrylamide], the “expression of four gene mRNAs (αSMA, TGF-β1, COL6A3, LOX)” value in assay [1] and in assay [3] was “inhibited” in each case. Further, the “accumulation degrees stained with red color (picrosirius, collagen)” value in assay [2] and in assay [4] was “reduced” in each case.

Consider `Cc1c(C(=O)C(=O)NCCO)nn(-c2ccc(Cl)cc2Cl)c1-c1ccc(Cl)cc1` [compound 2, 2-(5-(4-chlorophenyl)-1-(2,4-dichlorophenyl)-4-methyl-1H-pyrazole-3-yl)-N-(2-hydroxyethyl)-2-oxo-acetamide], for which the “expression of four gene mRNAs (αSMA, TGF-β1, COL6A3, LOX)” value in assay [1] and in assay [3] was “inhibited” throughout. Besides, the “accumulation degrees stained with red color (picrosirius, collagen)” value in assay [2] and in assay [4] was “reduced” throughout.
